Experimental data published in patent US20040071768A1, “Compositions and methods for treating cancer” (Inex Pharmaceuticals Corporation, priority 1999, published 2004).
Like-named read-outs stand apart in the source and are kept apart here.

Assays:
HT29 colon xenografts = test: Multiple dose (q7dx3) anti-tumor activity, HT29 colon xenograft; conditions: HT-29; for TF (tumor free animals at the end of study): n=6
Protocol: Female NCr nude mice were injected intravenously (q7dx3) via the lateral tail vein on days indicated by an asterisk (*). […] Drug-to-lipid ratio was 0.3/1 (w/w). Data points represent median tumor volume (n=6).
(§1) The anti-tumor activity of multiple (q7d3) dose schedules of liposomal vinorelbine was evaluated in several human xenograft tumor models. The goal of this series of studies was to identify the benefits of encapsulation by evaluating a series of doses and determining the therapeutic index in several xenograft models. Models were selected based on the following criteria: (1) activity in the single dose studies, (2) a comprehensive literature review of vinca alkaloid efficacy, (3) a desire to include at least 2-3 models that represent the clinical use of vinorelbine, and (4) a desire to include models with a range of sensitivity to vinorelbine so that improvements resulting from the use of the liposome formulation might be identified. Based on these criteria, MX-1 and MDA-MB-435 breast models, the NCl-H460 NSCLC model and the HT-29 and DLD-1 colon models were chosen.
(§2) Therapeutic index (TI) is a parameter that quantifies the “safety factor” of a particular therapy. TI is a ratio of a toxicity parameter and a biological activity parameter. Therefore, a higher ratio represents a greater potential margin of safety. For these studies, TI is defined as follows: […]
(§3) The minimal effective dose (MED) was set according to NCl activity criteria as the dose resulting in an optimal % T/C of 40. This information was derived from Table 7.

[1] = animal studies and clinical trials; cited from earlier work
DLD-1 colon xenografts = test system: DLD-1 colon xenografts
Protocol: Female NCr nude mice were injected intravenously (q7dx3) via the lateral tail vein on days indicated by an asterisk (*). […] Irinotecan (⋄) was prepared in saline and injected iv (q4dx3) at a dose of 90 mg/kg/dose. Drug-to-lipid ratio was 0.3/1 (w/w). Data points represent median tumor volume (n=6).
as §1, §2, §3

CCC1=C[C@@H]2CN(C1)Cc1c([nH]c3ccccc13)[C@@](C(=O)OC)(c1cc3c(cc1OC)N(C)[C@H]1[C@@](O)(C(=O)OC)[C@H](OC(C)=O)[C@]4(CC)C=CCN5CC[C@]31[C@@H]54)C2 [VRL, 5′-noranhydrovinblastine]
% T/C (optimal % T/C following final treatment) (HT29 colon xenografts; 5 mg/kg i.v. q7dx3): 67% | DRD (drug related deaths, n = 6) (HT29 colon xenografts; 5 mg/kg i.v. q7dx3): 0 | NCI Score (HT29 colon xenografts; 5 mg/kg i.v. q7dx3): 0 | T-C (tumor growth delay to 1000 mm^3) (HT29 colon xenografts; 5 mg/kg i.v. q7dx3): 1.32 | TF (tumor free animals at the end of study) (HT29 colon xenografts; 5 mg/kg i.v. q7dx3): 0 | % T/C (optimal % T/C following final treatment) (HT29 colon xenografts; 10 mg/kg i.v. q7dx3): 5% | DRD (drug related deaths, n = 6) (HT29 colon xenografts; 10 mg/kg i.v. q7dx3): 0 | NCI Score (HT29 colon xenografts; 10 mg/kg i.v. q7dx3): 1 | T-C (tumor growth delay to 1000 mm^3) (HT29 colon xenografts; 10 mg/kg i.v. q7dx3): 11.9 | TF (tumor free animals at the end of study) (HT29 colon xenografts; 10 mg/kg i.v. q7dx3): 0 | % T/C (optimal % T/C following final treatment) (HT29 colon xenografts; 20 mg/kg i.v. q7dx3): −65% | DRD (drug related deaths, n = 6) (HT29 colon xenografts; 20 mg/kg i.v. q7dx3): 0 | NCI Score (HT29 colon xenografts; 20 mg/kg i.v. q7dx3): 3 | T-C (tumor growth delay to 1000 mm^3) (HT29 colon xenografts; 20 mg/kg i.v. q7dx3): 29.3 | TF (tumor free animals at the end of study) (HT29 colon xenografts; 20 mg/kg i.v. q7dx3): 1 | drug excreted in feces [1]: 40-50% | drug excreted in urine [1]: ~20% | % T/C (optimal % T/C following final treatment) (DLD-1 colon xenografts; 5 mg/kg i.v. q7dx3): 88% | DRD (drug related deaths, n = 6) (DLD-1 colon xenografts; 5 mg/kg i.v. q7dx3): 0 | NCI Score (DLD-1 colon xenografts; 5 mg/kg i.v. q7dx3): 0 | T-C (tumor growth delay to 1000 mm^3) (DLD-1 colon xenografts; 5 mg/kg i.v. q7dx3): 0.0 | TF (tumor free animals at the end of study) (DLD-1 colon xenografts; 5 mg/kg i.v. q7dx3, n=6): 0 | % T/C (optimal % T/C following final treatment) (DLD-1 colon xenografts; 10 mg/kg i.v. q7dx3): 58% | DRD (drug related deaths, n = 6) (DLD-1 colon xenografts; 10 mg/kg i.v. q7dx3): 0 | NCI Score (DLD-1 colon xenografts; 10 mg/kg i.v. q7dx3): 0 | T-C (tumor growth delay to 1000 mm^3) (DLD-1 colon xenografts; 10 mg/kg i.v. q7dx3): 4.7 | TF (tumor free animals at the end of study) (DLD-1 colon xenografts; 10 mg/kg i.v. q7dx3, n=6): 0 | % T/C (optimal % T/C following final treatment) (DLD-1 colon xenografts; 20 mg/kg i.v. q7dx3): −36% | DRD (drug related deaths, n = 6) (DLD-1 colon xenografts; 20 mg/kg i.v. q7dx3): 0 | NCI Score (DLD-1 colon xenografts; 20 mg/kg i.v. q7dx3): 2 | T-C (tumor growth delay to 1000 mm^3) (DLD-1 colon xenografts; 20 mg/kg i.v. q7dx3): 19.7 | TF (tumor free animals at the end of study) (DLD-1 colon xenografts; 20 mg/kg i.v. q7dx3, n=6): 0 | % T/C (optimal % T/C following final treatment) (DLD-1 colon xenografts; 30 mg/kg i.v. q7dx3): −100% | DRD (drug related deaths, n = 6) (DLD-1 colon xenografts; 30 mg/kg i.v. q7dx3): 2 | NCI Score (DLD-1 colon xenografts; 30 mg/kg i.v. q7dx3): 3 | T-C (tumor growth delay to 1000 mm^3) (DLD-1 colon xenografts; 30 mg/kg i.v. q7dx3): 26.4 | TF (tumor free animals at the end of study) (DLD-1 colon xenografts; 30 mg/kg i.v. q7dx3, n=6): 0
